Data on one substance can be found in paper PMC5534107, “Sensitization of ASIC3 by proteinase-activated receptor 2 signaling contributes to acidosis-induced nociception” (Journal of Neuroinflammation, 2017).

The test system of assay [1] is heteromeric ASIC1b+3 channels expressed with PAR2 in CHO cells. The assay is described as follows: Whole-cell patch clamp, heteromeric ASIC1b+3 channels expressed with PAR2 in CHO cells. It counts as cell-based, Chinese hamster. The settings on record: PAR2-AP 10^−5 M for 1 min; I pH 6.6; ASIC3:other subunit 1:3; n = 8. How it is done: (§1) ASIC3, ASIC1a, ASIC1b, ASIC2b, and PAR2 complementary DNAs (cDNAs) were used for heterologous expression in CHO cells as described previously (Wang et al., 2013). In brief, CHO cells were cultured at 37 °C in a humidified atmosphere of 5% CO2 and […] and passaged twice a week. Transient transfection of CHO cells was performed using HilyMax liposome transfection reagent (Dojindo Laboratories). CHO cells were maintained in F-12 Nutrient Mixture (added 1.176 g of NaHCO3/L medium) supplemented with 10% fetal bovine serum and 1% gluta-MAXTM-1 (100×; Invitrogen). When ASIC3 and PAR2 cDNAs were co-transfected, the ratio was kept at 1:1. All plasmids used contained, in addition to the desired ASIC3 cDNA, the coding sequence for enhanced green fluorescent protein to aid identification of transfected cells. Electrophysiological measurements were performed 24–48 h after transfection.
(§2) Whole-cell patch clamp and voltage clamp recordings were carried out at room temperature (22–25 °C) using a MultiClamp-700B amplifier and Digidata-1440A A/D converter (Axon Instruments, CA, USA). […]
(§3) Drugs purchased from Sigma and used in the experiments include hydrochloric acid, 2-furoyl-LIGRLO-NH2 (a PAR2-activating peptide (PAR2-AP)), trypsin, FSLLRY-NH2, APETx2, and capsazepine. […] The application pipette tips were positioned ∼30 μm away from the recorded neurons. […]

In another assay the test system is rat DRG neurons. The assay can be described thus: Current clamp of acidosis-evoked action potentials (spikes) in rat DRG neurons. In kind it is cell-based. The conditions noted are these: PAR2-AP 10^−5 M for 1 min; pH 6.6 for 5 s; capsazepine 10 μM; control 3.5 ± 0.6; P < 0.05; n = 9.
Text: The experimental protocol was approved by the animal research ethics committee of Hubei University of Science and Technology (No. 2016–67). All procedures conformed to international guidelines on the ethical use of animals, and every effort was made to minimize the number of animals used and their sufferings. Five- to 6-week-old Sprague–Dawley male rats were anesthetized with 7% chloral hydrate and then decapitated. The DRGs were taken out and transferred immediately into Dulbecco’s modified Eagle’s medium (DMEM, Sigma) at pH 7.4. After the removal of the surrounding connective tissues, the DRGs were minced with fine spring scissors and the ganglion fragments were placed in a flask containing 5 ml of DMEM in which trypsin (type II-S, Sigma) 0.5 mg/ml, collagenase (type I-A, Sigma) 1.0 mg/ml, and DNase (type IV, Sigma) 0.1 mg/ml had been dissolved and incubated at 35 °C in a shaking water bath for 25–30 min. Soybean trypsin inhibitor (type II-S, Sigma) 1.25 mg/ml was then added to stop trypsin digestion. The incubating solution was then replaced by external solution. […]
as §3

The test system of assay [2] is heteromeric ASIC2b+3 channels expressed with PAR2 in CHO cells. The assay is described as follows: Whole-cell patch clamp, heteromeric ASIC2b+3 channels expressed with PAR2 in CHO cells. It counts as cell-based, Chinese hamster. The settings on record: PAR2-AP 10^−5 M for 1 min; I pH 6.6; ASIC3:other subunit 1:3; n = 8. How it is done: as §1, §2, §3
Background: Patch clamp records ionic current or voltage across a cell membrane.

The test system of assay [3] is ASIC3 currents in CHO cells expressing alone ASIC3, but not expressing PAR2. The assay is described as follows: Whole-cell patch clamp, CHO cells expressing ASIC3 alone (no PAR2). In kind it is cell-based, Chinese hamster. The conditions noted are these: 10^−5 M; P > 0.1; n = 10. How it is done:
as §1, §2, §3

As to 2-furoyl-LIGRLO-NH2 [PAR2-AP], the “increase of peak current of heteromeric ASIC1b+3 channels” value in assay [1] is given as 55.2 ± 5.9%. Moreover, the “mean number of spikes induced by acidosis after PAR2-AP pretreatment” value in the assay with rat DRG neurons is on record as 6.3 ± 0.9. The “increase of peak current of heteromeric ASIC2b+3 channels” value in assay [2] was determined as 68.1 ± 7.3%. Further, the “effect on I pH 6.6 in ASIC3-transfected CHO cells without PAR2” value in assay [3] is “Neither PAR2-AP nor trypsin had an effect”.
